Data as given in publication PMC7181131, “N-Pyrazinoyl Substituted Amino Acids as Potential Antimycobacterial Agents—the Synthesis and Biological Evaluation of Enantiomers” (Molecules, 2020).
≈ marks a conversion by molar mass, not a printed value. Read-outs that look alike come from different tables or passages of the source.

Experiments:
[1] = system: Lichtheimia corymbifera CCM 8077; assay: Antifungal microdilution broth method, LC; assay type: cell-based; settings: CCM8077, 48 h, read-out: MIC LC
[2] = system: Trichophyton interdigitale CCM 8377 (ATCC 9533); assay: Antifungal microdilution broth method, TI; assay type: cell-based; settings: 48 h, read-out: MIC TI
[3] = system: Candida krusei CCM 8271 (ATCC 6258); assay: Antifungal microdilution broth method, CK; assay type: cell-based; settings: Pichia kudriavzevii, 24 h, read-out: MIC CK
[4] = system: Aspergillus flavus CCM 8363; assay: Antifungal microdilution broth method, AFla; assay type: cell-based; settings: CCM8363, read after 48 h (filamentous fungi), read-out: MIC AFla
Protocol: 6. In vitro antifungal activity screening
Antifungal activity evaluation was performed using a microdilution broth method according to EUCAST instructions (The European Committee on Antimicrobial Susceptibility Testing) with slight modifications. Eight fungal strains (four yeast and four mould strains) were used for antifungal […]
and Trichophyton interdigitale CCM 8377 (ATCC 9533). Tested strains were purchased from the Czech Collection of Microorganisms (CCM, Brno, Czech Republic) or from the American Type Collection Cultures (ATCC, Manassas, VA, USA). Tested compounds were dissolved in DMSO and diluted in a twofold manner with RPMI 1640 medium, with glutamine and 2% glucose, buffered to pH 7.0 with MOPS (3-morpholinopropane-1-sulfonic acid). The final concentration of DMSO in the testing […]
Static incubation was performed in the dark and in humid atmosphere, at 35±2 °C, for 24 and 48 h (72 and 120 h for Trichophyton interdigitale respectively). Positive controls consisted of test microbe solely, while negative controls consisted of cultivation medium and DMSO. Visual inspection and metabolic activity indicator, Alamar Blue (ThermoFisher Scientific), were used for MIC endpoint evaluation. The internal quality standards, amphotericin B (Sigma-Aldrich) and voriconazole (Toronto research Chemicals, CA) were involved in assays (for MIC of standards see Table S5). All experiments were conducted in duplicates.
For the results to be valid, the difference in MIC for one compound determined from two parallel measurements must not be greater than one step on the dilution scale.

[5] = system: Klebsiella pneumoniae CCM 4415 (ATCC 10031); assay: Antibacterial microdilution broth method, KP; settings: read after 24 h of incubation
[6] = system: Candida parapsilosis CCM 8260 (ATCC 22019); assay: Antifungal microdilution broth method, CP; assay type: cell-based; settings: Lodderomyces parapsilosis, 24 h, read-out: MIC CP
[7] = system: Candida albicans CCM 8320 (ATCC 24433); assay: Antifungal microdilution broth method, CA; assay type: cell-based; settings: 24 h, read-out: MIC CA
[8] = system: Candida tropicalis CCM 8264 (ATCC 750); assay: Antifungal microdilution broth method, CT; assay type: cell-based; settings: 24 h, read-out: MIC CT
[9] = system: Aspergillus fumigatus ATCC 204305; assay: Antifungal microdilution broth method, AF; assay type: cell-based; settings: ATCC204305, 48 h, read-out: MIC AF
[10] = system: Mtb H37Ra ITM-M006710 (ATCC 9431); assay: Microplate Alamar Blue Assay (MABA) microdilution, Mtb H37Ra; assay type: cell-based, Mycobacterium tuberculosis; settings: Mycobacterium tuberculosis
[11] = system: Mycobacterium aurum DSM 43999 (ATCC 23366); assay: Microplate Alamar Blue Assay (MABA) microdilution, M. aurum; assay type: cell-based; settings: Mycolicibacterium aurum
[12] = system: Staphylococcus epidermidis CCM 4418 (ATCC 12228); assay: Antibacterial microdilution broth method, SE; assay type: cell-based; settings: 24 h, read-out: MIC SE
[13] = system: M. smegmatis DSM 43465 (ATCC 607); assay: Microplate Alamar Blue Assay (MABA) microdilution, M. smegmatis; assay type: cell-based, Mycobacterium smegmatis; settings: Mycolicibacterium smegmatis
[14] = pH 6.6, read-out: MIC Mtb H37Ra
[15] = pH 6, calculated from µg/mL, read-out: MIC Mtb H37Ra
[16] = pH 6, read-out: MIC M. aurum µg/mL
[17] = pH 6, read-out: MIC M. smegmatis µg/mL
[18] = pH 6.6, read-out: MIC M. smegmatis

Row | Structure (SMILES) | MIC [1] | MIC [2] | MIC [3] | MIC [4] | MIC KP [5] | MIC [6] | MIC [7] | MIC [8] | MIC [9] | MIC ([10]; pH 6) | MIC ([10]; pH 6, read-out: MIC Mtb H37Ra) | MIC [10, 14] | MIC [10, 15] | MIC [11, 16] | MIC ([11]; pH 6.6, read-out: MIC M. aurum) | MIC [12] | MIC [13, 17] | MIC [13, 18]
1 | COC(=O)[C@H](NC(=O)c1cnccn1)[C@H](C)OC(C)(C)C [PC-D-OtBu-Thr-Me, methyl O-(tert-butyl)-N-(pyrazine-2-carbonyl)-D-threoninate] | > 500 µM | > 500 µM | > 500 µM | > 500 µM | > 500 µM | > 500 µM | > 500 µM | > 500 µM | > 500 µM | 62.5 µg/mL | 62.5 µg/mL | ≥ 500 µg/mL | 212 µM | ≥ 500 µg/mL | ≥ 500 µg/mL | > 500 µM | ≥ 500 µg/mL | ≥ 500 µg/mL
2 | COC(=O)[C@@H](CO)NC(=O)c1cnccn1 [PC-D-Ser-Me, methyl (pyrazine-2-carbonyl)-D-serinate] | > 500 µM | > 500 µM | > 500 µM | > 500 µM | > 500 µM | > 500 µM | > 500 µM | > 500 µM | > 500 µM | 250 µg/mL | 250 µg/mL | ≥ 500 µg/mL | 1110 µM | 250 µg/mL (≈ 1110 µM) | ≥ 500 µg/mL | > 500 µM | ≥ 500 µg/mL | ≥ 500 µg/mL
3 | COC(=O)[C@H](NC(=O)c1cnccn1)[C@H](C)O [PC-D-Thr-Me, methyl (pyrazine-2-carbonyl)-D-threoninate] | > 500 µM | > 500 µM | > 500 µM | > 500 µM | > 500 µM | > 500 µM | > 500 µM | > 500 µM | > 500 µM | ≥ 500 µg/mL | ≥ 500 µg/mL | ≥ 500 µg/mL | ≥ 2090 µM | ≥ 500 µg/mL | ≥ 500 µg/mL | > 500 µM | ≥ 500 µg/mL | ≥ 500 µg/mL
4 | CCOC(=O)[C@@H](Cc1c[nH]c2ccccc12)NC(=O)c1cnccn1 [PC-D-Trp-Et, ethyl (pyrazine-2-carbonyl)-D-tryptophanate] | > 500 µM | > 500 µM | > 500 µM | > 500 µM | > 500 µM | > 500 µM | > 500 µM | > 500 µM | > 500 µM | 62.5 µg/mL | 62.5 µg/mL | 125 µg/mL | 185 µM | 62.5 µg/mL (≈ 185 µM) | 250 µg/mL (≈ 739 µM) | > 500 µM | 250 µg/mL (≈ 739 µM) | 250 µg/mL (≈ 739 µM)
5 | COC(=O)[C@@H](Cc1ccc(O)cc1)NC(=O)c1cnccn1 [PC-D-Tyr-Me, methyl (pyrazine-2-carbonyl)-D-tyrosinate] | > 500 µM | > 500 µM | > 500 µM | > 500 µM | > 500 µM | > 500 µM | > 500 µM | > 500 µM | > 500 µM | 125 µg/mL | 125 µg/mL | ≥ 500 µg/mL | 415 µM | ≥ 250 µg/mL | ≥ 500 µg/mL | > 500 µM | ≥ 500 µg/mL | ≥ 500 µg/mL
6 | COC(=O)[C@H](NC(=O)c1cnccn1)C(C)C [PC-D-Val-Me, methyl (pyrazine-2-carbonyl)-D-valinate] | > 500 µM | > 500 µM | > 500 µM | > 500 µM | > 500 µM | > 500 µM | > 500 µM | > 500 µM | > 500 µM | ≥ 125 µg/mL | ≥ 125 µg/mL | ≥ 500 µg/mL | ≥ 527 µM | ≥ 125 µg/mL | ≥ 500 µg/mL | > 500 µM | ≥ 125 µg/mL | ≥ 500 µg/mL
